The record followed here is article PMC11076738, “A rapid and simple non-radioactive assay for measuring uptake by solute carrier transporters” (Frontiers in Pharmacology, 2024).

What all share (assay type): cell-based
Assay [1] deals with BMP reporter gene. Nature of the assay: BMP reporter gene assay (Id1-Luc) in HEK293T cells. As to conditions: HEK293T cells with Id1-Luc reporter; 3 μM, 12 h. Here is the method:
HEK293T cells transfected with Id1-Luc reporter construct were seeded into a 96-well plate (190 μL/well of 3,000 cells/mL)) and then treated with 3 μM JH7 for 12 h. FK506 and DMSO were used as positive and negative controls, respectively. Cells were removed 100 μL DMEM and added in 40 μL Bright-Glo™ Luciferase reagent (per well) and placed on a plate-shaker for 10 min. Bright-Glo™ Luciferase Assay was performed with Ensight plate reader.
On the technique in general: Reporter assays use an easily measured gene product as a stand-in for the process of interest.

Assay [2] concerns the target T1, NTCP (Homo sapiens, UniProt Q14973).
T1 construct: His-tag; expressed in transfected cells
T1 sequence (Q14973 1-349): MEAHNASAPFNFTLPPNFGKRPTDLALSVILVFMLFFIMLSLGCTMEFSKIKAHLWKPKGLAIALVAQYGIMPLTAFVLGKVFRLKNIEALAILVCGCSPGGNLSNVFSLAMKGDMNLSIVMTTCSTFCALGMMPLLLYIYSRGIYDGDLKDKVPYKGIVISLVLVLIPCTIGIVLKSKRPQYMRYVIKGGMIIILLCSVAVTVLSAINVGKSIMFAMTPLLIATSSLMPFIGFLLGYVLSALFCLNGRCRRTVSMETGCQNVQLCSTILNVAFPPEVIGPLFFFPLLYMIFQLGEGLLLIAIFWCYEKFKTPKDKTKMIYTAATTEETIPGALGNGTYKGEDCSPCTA
Nature of the assay: TCA-d4 uptake assay (LC-MS/MS) in HepG2 NTCP cells.
Description: HepG2 NTCP cells were seeded into 12-well plates at a density of 2×10^5/well. After a 48 h incubation, cells were carefully washed with uptake buffer (10 mM HEPES, 100 mM NaCl, 2 mM KCl, 1 mM MgCl2, 1 mM CaCl2, pH 7.4) twice and incubated in 0.5 mL of uptake buffer for 15 min at 37 °C. […] Cells were then allowed to take up 5 μM of TCA-d4 at 37 °C for another 15 min. After incubation, cells were washed with uptake buffer three times and lysed with 200 μL of ethanol. The cell lysate was transferred to a new tube and the supernatant was collected by centrifugation at 12,000 rpm for 10 min at 4°C. TCA-d4 uptake was quantified with LC-MS/MS.
Prepared samples were separated on an Agilent 1290 II system (CA, United States) equipped with an XSelect HSS T3 C18 reverse phase column (2.1 × 150 mm, 3.5 μm). […] To separate TCA-d4, the mobile phase consisted of solution A (5 mM ammonium formate) and solution B (methanol). […]
Targeted analytes were monitored in a negative multiple-reaction monitoring (MRM) mode on an Agilent 6495C triple quadrupole LS/MS system (CA, United States). […] Leucine-d3 and TCA-d4 were monitored in negative ion mode with MRM ion pairs at 135.1 > 89.2 (collision energy: 14 eV) and 518.0 > 124.0 (collision energy: 65 eV), respectively. […]

For assay [3], the target named is T2, LAT1 (Homo sapiens, UniProt Q01650).
T2 construct: endogenous in cells; host or cells: LS174T (wild type)
Nature of the assay: 3H-leucine uptake assay in LS174T cells. Conditions: read-out: IC50, inhibition of 3H-leucine uptake, radioactive method, mean ± s.d., n = 3. As for the experimental part: The inhibitory activity of JPH203 on LAT1 was analyzed by measuring the cell uptake of ^3H-leucine as previously described with minor modifications ([Oda et al., 2010]). Similar to leucine-d3 uptake assay, LS174T cells were washed twice and incubated in Na^+-free uptake medium (10 mM Tris-HCl, 150 mM KCl, 5 mM MgCl2, 1 mM EGTA, pH 7.4) for 15 min. Cells were added with JPH203 or DMSO and incubated for another 15 min before adding ^3H-leucine. After 15 min incubation, cells were washed three times and lysed with 0.2 N NaOH plus 0.2% SDS. The cell lysate was transferred to a new tube containing 1 mL of optiphase supermix. ^3H-leucine uptake was quantified with a scintillation counter.

In assay [4] the target is T2, LAT1. The assay can be described thus: leucine-d3 uptake assay (LC-MS/MS) in LS174T cells. As to conditions: 5 μM leucine-d3, 15 min uptake, mean ± s.d., n = 3, read-out: IC50, inhibition of leucine-d3 uptake. Here is the method:
LS174T cells were seeded into 12-well plates at a density of 1×10^6/well. After a 48 h incubation, cells were carefully washed with prewarmed Na^+-free uptake buffer (10 mM Tris-HCl, 150 mM KCl, 5 mM MgCl2, 1 mM EGTA, pH 7.4) twice and incubated in 0.5 mL of Na^+-free uptake buffer at 37 °C for 15 min. Cells were washed with Na^+-free uptake buffer once again and incubated with different concentrations of JPH203 or DMSO at 37 °C for 15 min. Cells were then allowed to take up 5 μM of leucine-d3 at 37 °C for another 15 min. After incubation, cells were washed with Na^+-free uptake buffer three times and lysed with 200 μL of acetonitrile. The cell lysate was transferred to a new tube and the supernatant was collected by centrifugation at 12,000 rpm for 10 min at 4°C. Leucine-d3 uptake was quantified with LC-MS/MS.
Prepared samples were separated on an Agilent 1290 II system (CA, United States) equipped with an XSelect HSS T3 C18 reverse phase column (2.1 × 150 mm, 3.5 μm). […]
Targeted analytes were monitored in a negative multiple-reaction monitoring (MRM) mode on an Agilent 6495C triple quadrupole […] system (CA, United States). […] Leucine-d3 and TCA-d4 were monitored in negative ion mode with MRM ion pairs at 135.1 > 89.2 (collision energy: 14 eV) and 518.0 > 124.0 (collision energy: 65 eV), respectively. […]

T2 sequence (Q01650 whole entry): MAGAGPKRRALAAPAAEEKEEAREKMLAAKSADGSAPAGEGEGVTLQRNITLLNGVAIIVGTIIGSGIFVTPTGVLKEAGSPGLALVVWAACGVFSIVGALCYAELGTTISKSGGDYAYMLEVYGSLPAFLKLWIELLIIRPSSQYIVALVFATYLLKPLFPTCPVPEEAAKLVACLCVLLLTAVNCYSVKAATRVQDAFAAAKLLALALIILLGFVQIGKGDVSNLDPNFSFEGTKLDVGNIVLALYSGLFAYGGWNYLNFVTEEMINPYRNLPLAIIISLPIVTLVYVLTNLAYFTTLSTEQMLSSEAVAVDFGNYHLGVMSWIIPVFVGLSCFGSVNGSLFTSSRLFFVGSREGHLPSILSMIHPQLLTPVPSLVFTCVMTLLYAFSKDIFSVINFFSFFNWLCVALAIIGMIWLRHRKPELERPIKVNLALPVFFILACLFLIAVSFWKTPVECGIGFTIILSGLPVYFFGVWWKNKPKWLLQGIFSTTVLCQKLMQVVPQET
T2 sequence (P08195 102-630 partner): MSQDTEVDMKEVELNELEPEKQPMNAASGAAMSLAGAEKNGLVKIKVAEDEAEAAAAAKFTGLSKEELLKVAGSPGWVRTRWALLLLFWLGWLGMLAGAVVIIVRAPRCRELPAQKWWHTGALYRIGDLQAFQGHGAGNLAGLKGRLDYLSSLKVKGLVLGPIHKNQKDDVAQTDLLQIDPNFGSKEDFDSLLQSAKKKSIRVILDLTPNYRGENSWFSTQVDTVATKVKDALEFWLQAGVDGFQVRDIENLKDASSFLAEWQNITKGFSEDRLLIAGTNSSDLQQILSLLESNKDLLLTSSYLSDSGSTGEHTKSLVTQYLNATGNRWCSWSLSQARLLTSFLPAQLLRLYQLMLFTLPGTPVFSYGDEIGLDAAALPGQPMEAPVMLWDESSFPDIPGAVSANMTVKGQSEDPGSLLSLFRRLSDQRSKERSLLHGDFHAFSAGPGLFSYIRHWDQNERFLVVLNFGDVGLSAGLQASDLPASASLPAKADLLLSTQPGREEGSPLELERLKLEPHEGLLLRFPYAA

One may read the IC50 as the point on the concentration scale where inhibition reaches its midpoint. In the case of `CCCC[C@H]1C(=O)N[C@@H](Cc2ccc(F)cc2)C(=O)N(C)CC/C=C/C(=O)OCC(C)(C)C(=O)C(=O)N2CCCC[C@H]2C(=O)O[C@H](CCc2ccc(OC)c(OC)c2)c2cccc(c2)OCC(=O)N(C)CC(=O)N[C@@H](Cc2cccs2)C(=O)N1C` [JH7], in assay [1], the “activation of BMP reporter gene” value is given as “did not activate”. The IC50 in assay [2] (5 μM TCA-d4, 15 min uptake, mean ± s.d., n = 3, read-out: IC50, inhibition of TCA-d4 uptake) worked out at 49.3 ± 0.8 nM. For the same compound, the “TCA-d4 uptake (% of control)” value in assay [2] (rapafucins at a final concentration of 2 μM) is 19.35 % of control.

With `Nc1cc(COc2c(Cl)cc(C[C@H](N)C(=O)O)cc2Cl)c2oc(-c3ccccc3)nc2c1` [JPH203], the half-maximal inhibitory concentration (IC50) in assay [3] stood at 960 ± 90 nM; in assay [4], 1110 ± 210 nM.
